In patent US20100120810A1, “COMPOUNDS AND METHODS FOR MODULATING RHO GTPASES” (priority 2007, published 2010):
Counter-ions that a name gives are not always drawn. Like-named read-outs stand apart in the source and are kept apart here.

Legend:
[1] = molecular target: T1, Rac1 activated by DH/PH domain of Guanine nucleotide Exchange Factor Tiam1 (Rac1/Tiam1) (Homo sapiens, UniProt P63000); experiment: Nucleotide binding assay: BODIPY-GTP binding to Rac1 activated by Tiam1 DH/PH; assay type: biochemical; conditions: for IC50: dose-response study; for inhibition at 50 µM: read-out: Rac1 % inhibition of BODIPY-GTP binding
T1 construct: made in house; host or cells: E. coli BL21 Codon+RIL
Method: (§1) Fluorescence of GTP analog BODIPY-GTP increases when it binds to small G proteins. This property was used to assess ability of compounds to inhibit nucleotide binding to Rac1, Rac1b and Cdc42. 2 μM GST-Rac1 and 6 μg His6-Tiam1-DH/PH were diluted in a buffer containing 20 mM Tris, 50 mM NaCl, and 1 mM MgCl2. This mixture was loaded in a 96-well plate. Fluorescence recording were started (λEx: 485 nm; λEm: 538 nm) using a spectrofluorimeter (Fluoroskan; Thermolab Systems). Assay was initiated by the addition of 2 μM BODIPY-GTP with or without various doses of test compound. Fluorescence values were recorded, and data were processed as follows: background fluorescence (unbound BODIPY-GTP) was retrieved from fluorescence values.
(§2) This assay allows determining whether compounds can inhibit the binding of a fluorescent nucleotide to recombinant small G proteins of interest. The effect of various alkaloid compounds on binding of BODIPY-GTP to Rac1 activated by DH/PH domain of Guanine nucleotide Exchange Factor Tiam1 (Rac1/Tiam1), Rac1b and Cdc42 is described below.

Rac1b = molecular target: T2, Rac1b (Homo sapiens, UniProt P63000); experiment: Nucleotide binding assay: BODIPY-GTP binding to Rac1b; assay type: biochemical; conditions: for IC50: dose-response study; for inhibition at 50 µM: read-out: Rac1b % inhibition of BODIPY-GTP binding
T2 construct: GST (N); made in house; host or cells: E. coli BL21 Codon+RIL
Method: as §1, §2

Cdc42 = molecular target: T3, Cdc42 (Homo sapiens, UniProt P60953); experiment: Nucleotide binding assay: BODIPY-GTP binding to Cdc42; assay type: biochemical; conditions: for IC50: dose-response study; for inhibition at 50 µM: read-out: Cdc42 % inhibition of BODIPY-GTP binding
T3 construct: GST (N); made in house; host or cells: E. coli BL21 Codon+RIL
T3 sequence (P60953 whole entry, species assumed): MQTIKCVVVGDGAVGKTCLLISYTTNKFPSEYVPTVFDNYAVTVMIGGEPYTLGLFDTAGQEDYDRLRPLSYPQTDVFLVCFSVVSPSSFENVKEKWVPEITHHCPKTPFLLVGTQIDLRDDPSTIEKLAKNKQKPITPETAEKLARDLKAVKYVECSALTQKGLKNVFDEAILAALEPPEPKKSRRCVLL
Method: as §1, §2

[2] = molecular target: T4, HEK293 cells overexpressing human Rac1b (Homo sapiens, UniProt P63000); experiment: Rac1b activation assay (G-LISA); assay type: cell-based
T4 construct: expressed in transfected cells; host or cells: HEK293
Method: Rac1b activation assay: HEK293 cells overexpressing human Rac1b were plated in 100 mm diameter dishes and grown for 5 days in MEM medium supplemented with 10% FBS, L-Glutamine and antibiotics. Cells were then treated with 50 μM of compounds or the solvent for 5 minutes, and the GTP loading of Rac1b was measured using a Rac Activation Assay Kit (Cytoskeleton) according to manufacturer's recommendations. Briefly, this assay uses a 96-well plate coated with RBD domain of Rho-family effector proteins. […] The signal is then developed with OPD reagent.

HCT116 cell line = experiment: Soft agar assay (anchorage-independent colony formation); assay type: cell-based; conditions: HCT116, 7 days
Text: Colony formation in soft agar is the most widely used assay to evaluate anchorage-independent growth potential and represents one of the best in vitro assays that correlates strongly with in vivo tumorigenic cell growth potential. Normal cells require adherence and spreading onto a solid substratum in order to remain viable and proliferate. In contrast, cancer cell line HCT116 (ATCC clone number CCL-247) lost this requirement and therefore can form proliferating colonies of cells when suspended in a semisolid agar medium. The assay was performed in 24-well plates, using duplicates wells for each compound concentration. Briefly, a 0.5% Bacto™ Agar (BD Biosciences) bottom layer (prepared in HCT116 complete growth medium supplemented or not with the tested compound) was poured first and allowed to harden (0.3 ml per well). HCT116 were trypsinized to generate a uniform single cell suspension. Five×10^3 cells per well were resuspended in 0.3% agar supplemented with complete growth medium, with or without several compound concentrations to form the top layer (0.3 ml per well). HCT116 were allowed to grow for 7 days in these conditions and then analysed for colonies formation. Analysis was performed from pictures taken under a microscope that are representative from 2 different fields of the well. For each field, 2 different focal plans were taken and were merged using ImageJ software. The number of colonies were scored and colonies' size were measured. IC50 were determined for the number and size of colonies using GraphPad Prism (GraphPad) software. Data are mean values of 2 to 3 independent experiments.

protein kinase C (PKC) = conditions: cited from earlier work
[3] = HEK293, read-out: G-LISA % inhibition @ 50 μM
[4] = Homo sapiens, HCT-116, 168 h, read-out: Soft agar assay IC50, Clone Number
[5] = Homo sapiens, HCT-116, 168 h, read-out: Soft agar assay IC50, Clone Size
[6] = final concentration of 50 μM, Rac1/Tiam1
[7] = HEK293, 50 μM, 5 minutes, GTP loading of Rac1b, read-out: G-LISA % inhibition @ 50 μM

| inhibition at 50 µM [1, 6] | inhibition at 50 µM (Rac1b; final concentration of 50 μM) | inhibition at 50 µM (Cdc42; final concentration of 50 μM) | SMILES | IC50 (HCT116 cell line; [4]) | IC50 (HCT116 cell line; [5]) | other results |
| --- | --- | --- | --- | --- | --- | --- |
|  |  |  | C[n+]1cc2c3c(ccc2c2ccc4cc5c(cc4c21)OCO5)OCO3.O.[Cl-] [Compound 13, 13-methyl-[1,3]benzodioxolo[5,6-c]-1,3-dioxolo[4,5-i]phenanthridinium chloride hydrate, reference compound] | 1.9 ± 0.6 µM | 1.5 ± 0.2 µM | IC50 [1]: 57.8 ± 4.3 µM; inhibition at 50 µM [1]: 45 ± 4%; IC50 (Rac1b): 4.6 ± 0.4 µM; fold more active on Rac1b than on Rac1/Tiam1 (Rac1b; from IC50s): 13 fold; times more active on Rac1b than on Cdc42 (Rac1b; from IC50s): 6 times; inhibition at 50 µM (Rac1b): 100%; selectivity for Rac1b (Rac1b; versus Rac1 or Cdc42): some significant selectivity for Rac1b; IC50 (Cdc42): 32.1 ± 0.7 µM; inhibition at 50 µM (Cdc42): 63 ± 2%; inhibition at 50 µM [2, 3]: 50 ± 3%; activity against PKC (protein kinase C (PKC)): 217 μm |
|  |  |  | COc1cc2cc(-c3ccc4ccccc4c3)nc(C)c2cc1OC.Cl [Compound 41, 6,7-Dimethoxy-1-methyl-3-(naphthalen-2-yl)isoquinolinylium chloride] | 70.7 ± 5.9 µM | 44.4 ± 4.5 µM | Cdc42 % inhibition of BODIPY-GTP binding (Cdc42; final concentration of 50 μM, 50 µM): 52 ± 4% |
| 9 ± 3% | 16 ± 2% | 4 ± 4% | COc1cc2cc(-c3cccc(NS(C)(=O)=O)c3)nc(C)c2cc1OC [Compound 30, N-(3-(6,7-Dimethoxy-1-methylisoquinolin-3-yl)phenyl)methanesulfonamide hydrochloride] |  |  | inhibition at 50 µM [2, 7]: 12 ± 2% |
|  |  |  | O=c1cc(CN2CCOCC2)occ1OCCCCCSc1ccnc2cc(C(F)(F)F)ccc12 [EHT 1864, reference compound] |  |  | IC50 (HCT116 cell line; read-out: Soft agar assay IC50, Clone Number): 57.5 ± 4.5 µM; IC50 (HCT116 cell line; read-out: Soft agar assay IC50, Clone Size): 19.5 ± 2.5 µM |
| 18 ± 3% | 27 ± 2% | 7 ± 2% | COc1cc2cc(-c3cccc(C(C)=O)c3)nc(C)c2cc1OC [Compound 24, 1-(3-(6,7-Dimethoxy-1-methylisoquinolin-3-yl)phenyl)ethanone hydrochloride] |  |  | inhibition at 50 µM [2, 7]: 19 ± 5% |
| -5 ± 2% | -2 ± 2% | 2 ± 4% | COc1cc2cc(-c3cccc(N(S(C)(=O)=O)S(C)(=O)=O)c3)nc(C)c2cc1OC [Compound 29, N-(3-(6,7-Dimethoxy-1-methylisoquinolin-3-yl)phenyl)-N-(methylsulfonyl)methanesulfonamide hydrochloride] |  |  |  |
| 10 ± 1% | 14 ± 2% | 1 ± 13% | COc1cc2cc(-c3ccccc3N)nc(C)c2cc1OC [Compound 37, 2-(6,7-Dimethoxy-1-methylisoquinolin-3-yl)aniline dihydrochloride] |  |  |  |
| 13 ± 2% | 20 ± 2% | 3 ± 5% | COc1cc2cc(-c3cccc(N)c3)nc(C)c2cc1OC [Compound 28, 3-(6,7-Dimethoxy-1-methylisoquinolin-3-yl)aniline dihydrochloride] |  |  | inhibition at 50 µM [2, 7]: 27 ± 4% |
|  |  |  | C[n+]1cc2c(O)c(O)ccc2c2ccc3cc(O)c(O)cc3c21 [Compound 52, 2,3,7,8-Tetrahydroxy-5-methylbenzo[c]phenanthridinium chloride] | 9.8 ± 1.3 µM | 9.5 ± 0.4 µM | IC50 (Cdc42): 22 ± 2 µM; inhibition at 50 µM (Cdc42): 73 ± 4% |
| -2 ± 3% | 3 ± 3% | 3 ± 5% | CNC(=O)c1ccc(-c2cc3cc(OC)c(OC)cc3c(C)n2)cc1 [Compound 34, 4-(6,7-Dimethoxy-1-methylisoquinolin-3-yl)-N-methylbenzamide] |  |  |  |
| 15 ± 3% | 18 ± 1% | 17 ± 1% | COc1cc(-c2cc3cc(OC)c(OC)cc3c(C)n2)ccc1O [Compound 47, 4-(6,7-Dimethoxy-1-methylisoquinolin-3-yl)-2-methoxyphenol hydrochloride] |  |  | inhibition at 50 µM [2, 7]: 13 ± 8% |
| 12 ± 2% | 18 ± 2% | 14 ± 3% | COc1cc2cc(-c3ccc4c(c3)OCO4)[n+](C)c(C)c2cc1OC [Compound 22, 3-(Benzo[d][1,3]dioxol-5-yl)-6,7-dimethoxy-1,2-dimethylisoquinolinium chloride] |  |  |  |
|  |  | 11 ± 2% | COc1cc2c(cc1OC)-c1cc3ccc(OC)c(OC)c3c[n+]1CC2 [Compound 2, palmatine chloride, hydrate, reference compound] |  |  | inhibition at 50 µM [1]: 15 ± 2%; inhibition at 50 µM (Rac1b): 19 ± 3% |
| 22 ± 1% | 36 ± 4% | 12 ± 1% | Cc1c2cc(O)c(O)cc2cc(-c2ccc(O)c(O)c2)[n+]1C [Compound 45, 3-(3,4-Dihydroxyphenyl)-6,7-dihydroxy-1,2-dimethylisoquinolinium chloride] |  |  |  |
|  |  |  | Oc1cc2c(cc1O)C1Cc3ccc(O)c(O)c3CN1CC2 (racemic) [Compound 16, (±)-5,8,13,13a-Tetrahydro-6H-isoquino[3,2-a]isoquinolinylium-2,3,9,10-tetraol hydrochloride] | 6.4 ± 1.3 µM | 6.2 ± 0.4 µM | inhibition at 50 µM (Cdc42): 4 ± 6% |
| 10 ± 3% | 12 ± 3% | -4 ± 13% | COc1cc2cc(-c3cccnc3)nc(C)c2cc1OC [Compound 36, 6,7-Dimethoxy-1-methyl-3-(pyridin-3-yl)isoquinoline dihydrochloride] |  |  |  |
| 1 ± 3% | 0% | 3 ± 7% | COc1cc2cc(-c3ccccc3NC(C)=O)nc(C)c2cc1OC [Compound 38, N-(2-(6,7-Dimethoxy-1-methylisoquinolin-3-yl)phenyl)acetamide] |  |  |  |

| SMILES | inhibition at 50 µM [1, 6] | inhibition at 50 µM (Rac1b; final concentration of 50 μM) | inhibition at 50 µM (Cdc42; final concentration of 50 μM) | IC50 (HCT116 cell line; [4]) | IC50 (HCT116 cell line; [5]) | other results |
| --- | --- | --- | --- | --- | --- | --- |
| COc1ccc2c(c[n+](C)c3c4cc(O)c(O)cc4ccc23)c1OC [Compound 51, 2,3-Dihydroxy-7,8-dimethoxy-5-methylbenzo[c]phenanthridinium chloride] |  |  | 38 ± 2% | > 50 µM | 11.4 ± 1.9 µM | IC50 (Cdc42): 78 ± 3 µM |
| COc1cc2cc(-c3ccc(O)c(O)c3)nc(C)c2cc1OC [Compound 26, 4-(6,7-Dimethoxy-1-methylisoquinolin-3-yl)benzene-1,2-diol hydrochloride] |  |  | 15 ± 1% | 14.8 ± 3.3 µM | 8.5 ± 0.9 µM |  |
| COc1ccc2cc3[n+](cc2c1OC)CCc1cc(O)c(O)cc1-3 [Compound 4, 9,10-dimethoxy-5,6-dihydro-isoquino[3,2-a]isoquinolinylium-2,3-diol chloride] |  |  | 31 ± 9% |  |  | IC50 [1]: 58.6 ± 16.9 µM; inhibition at 50 µM [1]: 39 ± 2%; IC50 (Rac1b): 23.8 ± 2.9 µM; inhibition at 50 µM (Rac1b): 54 ± 2%; inhibition at 50 µM [2, 3]: 30 ± 5% |
